Results: US9447187B2, “Use of an anti-CD200 antibody for prolonging the survival of allografts” (Alexion Pharmaceuticals, Inc., priority 2011, dated 2016)
Several values for one entry are separate records, joined by “and”; a condition that tells them apart may be missing. Equal values may be shown once.

Test system: cardiac allograft (C57BL/6 to BALB/c mice)
Assay: C57BL/6 to BALB/c fully MHC-mismatched mouse heart transplantation model (graft survival, pulsation)
Type: in vivo
Method: The studies described in this section examined graft survival in a C57BL/6 to BALB/c fully MHC-mismatched mouse heart transplantation model. Each experimental group included 4-6 animals. Some of the experimental groups were treated with antibodies. […] Antibody 4 is a control, murine monoclonal antibody that shares a variable region with Antibody 2. […]
An experiment was also performed to evaluate whether use of an anti-CD200 antibody can reduce the duration or amount of mycophenolate mofetil that is necessary to prolong the survival of an allograft in a recipient mammal. First, a pilot experiment was performed to determine the dose of, and duration of, mycophenolate mofetil required to prolong allograft survival in mice. As described in Example 3, these studies examined graft survival in a C57BL/6 to BALB/c fully MHC-mismatched mouse heart transplantation model. Each experimental group included five (5) animals. The three experimental groups were treated as follows:
Group 1-PE (pilot experiment): cardiac allograft-bearing mice were orally administered mycophenolate mofetil at a dose of 120 mg/kg each day of the study beginning at the time of transplant;
Group 2-PE: cardiac allograft-bearing mice were orally administered mycophenolate mofetil at a dose of 80 mg/kg each day of the study beginning at the time of transplant; and
Group 3-PE: cardiac allograft-bearing mice were orally administered FK-506 at a dose of 16 mg/kg for each day of the study beginning at the time of transplant. […]
(§1) As described in Example 3, these studies examined graft survival in a C57BL/6 to BALB/c fully MHC-mismatched mouse heart transplantation model. Each experimental group included five (5) animals. The five experimental groups were treated as follows: […]
as §1, with “The three” for “The five”, “as follows, with treatment beginning at the time of transplantation:” for “as follows:”

Structure (SMILES)	Individual Survival (mycophenolate mofetil alone, 80 mg/kg orally each day of the study (pilot experiment), 80 mg/kg)	Mean Survival (mycophenolate mofetil alone, 80 mg/kg orally each day of the study (pilot experiment), listed as MMF, 80 mg/kg)	Individual Survival (mycophenolate mofetil alone, 120 mg/kg orally each day of the study (pilot experiment), 120 mg/kg)	Individual Survival (FK-506 alone, 16 mg/kg orally each day of the study, 16 mg/kg)
COc1c(C)c2c(c(O)c1C/C=C(\C)CCC(=O)OCCN1CCOCC1)C(=O)OC2 [mycophenolate mofetil]	18 days and 19 days and 20 days and 22 days (2×)	approximately 20.2 days	20 days and 21 days and 22 days and 23 days and 25 days	
C=CC[C@@H]1/C=C(\C)C[C@H](C)C[C@H](OC)[C@H]2O[C@@](O)(C(=O)C(=O)N3CCCC[C@H]3C(=O)O[C@H](/C(C)=C/[C@@H]3CC[C@@H](O)[C@H](OC)C3)[C@H](C)[C@@H](O)CC1=O)[C@H](C)C[C@@H]2OC [FK-506, tacrolimus]				23 days and 25 days (2×) and 26 days and 27 days
